Organism: Rattus norvegicus
Test: DrugMatrix - Regimen: Daily Repeat
Assay type: toxicity, organism-based, Sprague-Dawley
Parameters: regimen Daily Repeat, gender Male, age 6-8 weeks
Conditions: in vivo, po, 0 mg/kg, route oral GAVAGE, dose level Control, […]; for ABSOLUTE BASOPHIL / ABSOLUTE EOSINOPHIL / ABSOLUTE LYMPHOCYTE / ABSOLUTE MONOCYTE / ABSOLUTE SEGMENTED NEUTROPHIL / BASOPHIL / EOSINOPHIL / ERYTHROCYTE COUNT / HEMATOCRIT / HEMOGLOBIN / LEUKOCYTE COUNT / LYMPHOCYTE / MEAN CORPUSCULAR HEMOGLOBIN / MEAN CORPUSCULAR HEMOGLOBIN CONCENTRATION / MEAN CORPUSCULAR VOLUME / MONOCYTE / NEUTROPHIL / NUCLEATED RED BLOOD CELLS / PLATELET COUNT: tissue Blood; for ALANINE AMINOTRANSFERASE / ALKALINE PHOSPHATASE / ASPARTATE AMINOTRANSFERASE / BLOOD UREA NITROGEN / CARBON DIOXIDE / CHLORIDE / CHOLESTEROL / CREATINE PHOSPHOKINASE / CREATININE / GLUCOSE / LACTATE DEHYDROGENASE / LIPASE / PHOSPHORUS / POTASSIUM / SODIUM / TOTAL BILIRUBIN / TOTAL PROTEIN / URIC ACID: tissue Plasma

CC(=O)[C@H]1CC[C@H]2[C@@H]3CCC4=CC(=O)CC[C@]4(C)[C@H]3CC[C@]12C [PROGESTERONE]
ABSOLUTE BASOPHIL (72 h, time 3 day): 0 CELLS/uL | ABSOLUTE EOSINOPHIL (72 h, time 3 day): 41.83 CELLS/uL | ABSOLUTE LYMPHOCYTE (72 h, time 3 day): 8545.5 CELLS/uL | ABSOLUTE MONOCYTE (72 h, time 3 day): 240 CELLS/uL | ABSOLUTE SEGMENTED NEUTROPHIL (72 h, time 3 day): 906 CELLS/uL | BASOPHIL (72 h, time 3 day): 0% | EOSINOPHIL (72 h, time 3 day): 0.33% | ERYTHROCYTE COUNT (72 h, time 3 day): 5.6 x10E6/uL | HEMATOCRIT (72 h, time 3 day): 35.4% | HEMOGLOBIN (72 h, time 3 day): 13.42 G/DL | LEUKOCYTE COUNT (72 h, time 3 day): 9.73 x10E3/uL | LYMPHOCYTE (72 h, time 3 day): 87.83% | MEAN CORPUSCULAR HEMOGLOBIN (72 h, time 3 day): 23.98 pg | MEAN CORPUSCULAR HEMOGLOBIN CONCENTRATION (72 h, time 3 day): 37.92 G/DL | MEAN CORPUSCULAR VOLUME (72 h, time 3 day): 63.3 fL | MONOCYTE (72 h, time 3 day): 2.5% | NEUTROPHIL (72 h, time 3 day): 9.33% | NUCLEATED RED BLOOD CELLS (72 h, time 3 day): 0 /100WBC | PLATELET COUNT (72 h, time 3 day): 1032 x10E3/uL | ALANINE AMINOTRANSFERASE (72 h, time 3 day): 72.83 u/L | ALKALINE PHOSPHATASE (72 h, time 3 day): 322.83 u/L | ASPARTATE AMINOTRANSFERASE (72 h, time 3 day): 102.67 u/L | BLOOD UREA NITROGEN (72 h, time 3 day): 12 mg/dL | CARBON DIOXIDE (72 h, time 3 day): 34.33 mmol/L | CHLORIDE (72 h, time 3 day): 97.67 MEQ/L | CHOLESTEROL (72 h, time 3 day): 82.5 mg/dL | CREATINE PHOSPHOKINASE (72 h, time 3 day): 410.33 u/L | CREATININE (72 h, time 3 day): 0.18 mg/dL | GLUCOSE (72 h, time 3 day): 164.5 mg/dL | LACTATE DEHYDROGENASE (72 h, time 3 day): 119.5 u/L | LIPASE (72 h, time 3 day): 11.83 u/L | PHOSPHORUS (72 h, time 3 day): 9.52 mg/dL | POTASSIUM (72 h, time 3 day): 5.56 MEQ/L | SODIUM (72 h, time 3 day): 142.48 MEQ/L | TOTAL BILIRUBIN (72 h, time 3 day): 0.18 mg/dL | TOTAL PROTEIN (72 h, time 3 day): 5.77 G/DL | URIC ACID (72 h, time 3 day): 0.48 mg/dL | ABSOLUTE BASOPHIL (120 h, time 5 day): 0 CELLS/uL | ABSOLUTE EOSINOPHIL (120 h, time 5 day): 0 CELLS/uL | ABSOLUTE LYMPHOCYTE (120 h, time 5 day): 9065 CELLS/uL | ABSOLUTE MONOCYTE (120 h, time 5 day): 341.33 CELLS/uL | ABSOLUTE SEGMENTED NEUTROPHIL (120 h, time 5 day): 527 CELLS/uL | BASOPHIL (120 h, time 5 day): 0% | EOSINOPHIL (120 h, time 5 day): 0% | ERYTHROCYTE COUNT (120 h, time 5 day): 5.25 x10E6/uL | HEMATOCRIT (120 h, time 5 day): 34.08% | HEMOGLOBIN (120 h, time 5 day): 13.5 G/DL | LEUKOCYTE COUNT (120 h, time 5 day): 9.93 x10E3/uL | LYMPHOCYTE (120 h, time 5 day): 91.17% | MEAN CORPUSCULAR HEMOGLOBIN (120 h, time 5 day): 25.7 pg | MEAN CORPUSCULAR HEMOGLOBIN CONCENTRATION (120 h, time 5 day): 39.62 G/DL | MEAN CORPUSCULAR VOLUME (120 h, time 5 day): 64.93 fL | MONOCYTE (120 h, time 5 day): 3.33% | NEUTROPHIL (120 h, time 5 day): 5.5% | NUCLEATED RED BLOOD CELLS (120 h, time 5 day): 0 /100WBC | PLATELET COUNT (120 h, time 5 day): 1077.5 x10E3/uL | ALANINE AMINOTRANSFERASE (120 h, time 5 day): 57.83 u/L | ALKALINE PHOSPHATASE (120 h, time 5 day): 319.17 u/L | ASPARTATE AMINOTRANSFERASE (120 h, time 5 day): 83.33 u/L | BLOOD UREA NITROGEN (120 h, time 5 day): 13.67 mg/dL | CARBON DIOXIDE (120 h, time 5 day): 30.83 mmol/L | CHLORIDE (120 h, time 5 day): 98.33 MEQ/L | CHOLESTEROL (120 h, time 5 day): 64.83 mg/dL | CREATINE PHOSPHOKINASE (120 h, time 5 day): 263.67 u/L | CREATININE (120 h, time 5 day): 0.2 mg/dL | GLUCOSE (120 h, time 5 day): 182.83 mg/dL | LACTATE DEHYDROGENASE (120 h, time 5 day): 124 u/L | LIPASE (120 h, time 5 day): 10.5 u/L | PHOSPHORUS (120 h, time 5 day): 10 mg/dL | POTASSIUM (120 h, time 5 day): 5.78 MEQ/L | SODIUM (120 h, time 5 day): 142.48 MEQ/L | TOTAL BILIRUBIN (120 h, time 5 day): 0.2 mg/dL | TOTAL PROTEIN (120 h, time 5 day): 6 G/DL | URIC ACID (120 h, time 5 day): 0.7 mg/dL

Reference: ChEMBL document CHEMBL3885881, “DrugMatrix”
